Values quoted from earlier work, collected in US20090265114A1, “Influenza virus neuraminidase crystal structure and their use thereof” (priority 2006, published 2009).

How the values were obtained:
[1] = system: Group-2 NAs with His-274->Tyr
[2] = system: Group-1 NAs with His-274->Tyr
[3] = system: Group-1 enzymes with Arg-292->Lys; conditions: Group-1 enzymes compared with Group-2 NAs

CCOC(=O)C1=C[C@@H](OC(CC)CC)[C@H](NC(C)=O)[C@@H](N)C1 [oseltamivir]
effect of the mutation His-274->Tyr on resistance against oseltamivir [1]: little effect
resistance against oseltamivir caused by the mutation His-274->Tyr [2]: high resistance
effect of the mutation Arg-292->Lys on oseltamivir resistance [3]: smaller effect
